Results published in paper PMC2678953 (Journal of peptide science : an official publication of the …, 2008).

Assays:
GIVA cPLA2 = biological target: T1, GIVA cPLA2 (Homo sapiens, UniProt P47712); assay: mixed-micelle PLA2 activity assay; assay type: biochemical
T1 sequence (P47712 1-749): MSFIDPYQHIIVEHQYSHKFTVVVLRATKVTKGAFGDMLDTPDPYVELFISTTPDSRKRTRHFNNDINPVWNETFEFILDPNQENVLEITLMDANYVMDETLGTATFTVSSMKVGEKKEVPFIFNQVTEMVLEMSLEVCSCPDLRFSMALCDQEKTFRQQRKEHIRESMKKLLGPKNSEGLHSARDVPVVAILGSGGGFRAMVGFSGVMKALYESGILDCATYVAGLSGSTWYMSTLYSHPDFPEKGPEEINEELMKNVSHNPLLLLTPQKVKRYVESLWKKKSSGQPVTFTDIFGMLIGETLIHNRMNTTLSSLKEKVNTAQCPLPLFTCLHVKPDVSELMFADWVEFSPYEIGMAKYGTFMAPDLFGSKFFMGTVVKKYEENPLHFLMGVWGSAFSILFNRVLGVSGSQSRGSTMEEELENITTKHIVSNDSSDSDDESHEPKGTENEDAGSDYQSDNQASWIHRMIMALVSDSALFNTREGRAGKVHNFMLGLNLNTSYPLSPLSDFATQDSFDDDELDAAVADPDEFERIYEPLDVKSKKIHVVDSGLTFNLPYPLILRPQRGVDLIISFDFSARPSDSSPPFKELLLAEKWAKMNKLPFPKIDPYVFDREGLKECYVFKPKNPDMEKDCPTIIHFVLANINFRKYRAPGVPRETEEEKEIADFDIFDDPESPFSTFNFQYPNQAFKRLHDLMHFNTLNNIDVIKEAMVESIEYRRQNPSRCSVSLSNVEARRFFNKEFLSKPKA

GVIA iPLA2 = biological target: T2, GVIA iPLA2 (Homo sapiens, UniProt O60733); assay: in vitro GVIA iPLA2 activity assay, XI; assay type: biochemical
T2 sequence (O60733 1-806): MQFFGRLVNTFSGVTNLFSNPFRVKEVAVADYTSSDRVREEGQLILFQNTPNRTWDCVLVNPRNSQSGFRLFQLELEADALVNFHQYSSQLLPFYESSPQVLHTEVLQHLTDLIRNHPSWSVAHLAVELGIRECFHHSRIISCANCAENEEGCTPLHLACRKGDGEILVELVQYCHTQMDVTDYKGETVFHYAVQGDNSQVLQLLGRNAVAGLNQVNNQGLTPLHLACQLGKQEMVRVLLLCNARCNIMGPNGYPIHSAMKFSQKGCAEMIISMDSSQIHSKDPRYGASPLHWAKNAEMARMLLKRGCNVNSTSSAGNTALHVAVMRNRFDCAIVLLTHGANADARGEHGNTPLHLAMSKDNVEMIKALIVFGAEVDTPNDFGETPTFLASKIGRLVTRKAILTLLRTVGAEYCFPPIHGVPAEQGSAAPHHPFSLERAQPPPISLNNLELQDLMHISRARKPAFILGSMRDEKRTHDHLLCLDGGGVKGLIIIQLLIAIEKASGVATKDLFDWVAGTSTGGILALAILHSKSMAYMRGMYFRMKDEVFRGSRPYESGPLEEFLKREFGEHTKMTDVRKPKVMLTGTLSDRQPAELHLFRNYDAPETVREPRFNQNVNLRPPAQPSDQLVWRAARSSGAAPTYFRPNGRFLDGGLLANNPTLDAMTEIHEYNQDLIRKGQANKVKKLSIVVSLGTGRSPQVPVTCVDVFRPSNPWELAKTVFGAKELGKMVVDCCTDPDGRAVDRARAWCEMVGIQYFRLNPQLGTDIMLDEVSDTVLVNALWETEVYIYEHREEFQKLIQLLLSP

| Structure (SMILES) | GIVA cPLA2 (GIVA cPLA2) | GVIA iPLA2 (GVIA iPLA2) |
| --- | --- | --- |
| CCCCCCCCCCCCCCC(=O)C(=O)NCCCNS(=O)(=O)c1ccc(C)cc1 [5a, N-(3-(4-Methylphenylsulfonamido)propyl)-2-oxohexadecanamide] | 0.055 ± 0.006 mole fraction (XI(50)) | 0.076 ± 0.020 mole fraction (XI(50)) |
| CCCCCCCCCCCCCCC(=O)C(=O)N[C@@H](CCCC)CCCNS(=O)(=O)c1ccc(C)cc1 [14b, (S)-N-[1-(4-Methylphenylsulfonamido)octan-4-yl]-2-oxohexadecanamide] | 0.033 ± 0.018 mole fraction (XI(50)) |  |
| CCCCCCCCCCCCCCC(=O)C(=O)NCCCC(=O)N(C)S(=O)(=O)c1ccc(C)cc1 [compound 20, N-[4-(N,4-Dimethylphenylsulfonamido)-4-oxobutyl)-2-oxohexadecanamide] | 0.033 ± 0.018 mole fraction (XI(50)) |  |
| CCCCCCCCCCCCCCC(=O)C(=O)N[C@@H](CCCC)CCCNS(C)(=O)=O [14a, (S)-N-[1-(Methylsulfonamido)octan-4-yl]-2-oxohexadecanamide] | 0.029 ± 0.019 mole fraction (XI(50)) | 0.060 ± 0.037 mole fraction (XI(50)) |
